Test results: patent publication US11952384B2, “Anti-tumor compound and preparation method and use thereof” (DUALITY BIOLOGICS (SUZHOU) CO., LTD., priority 2020, dated 2024)
Like-named read-outs stand apart in the source and are kept apart here.

Experiments:
JIMT-1 cells = assay: Inhibition of in vitro proliferation of tumor cells by compounds (CTG, 6 days); assay type: cell-based; details: small molecule fragments, 6 days of culture, CTG, read-out: JIMT-1 IC50
Outline: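 JIMT-1 cells in RPMI-1640/10% FBS plated at 6×10^4 cells/mL, left 18 h, then exposed to 8 compound concentrations (0.1–300 nM) in duplicate for 6 days at 37° C. Viability by CellTiter-Glo luminescence; IC50 derived.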

NCI-N87 cells = assay: as above; assay type: cell-based; details: small molecule fragments, 6 days of culture, CTG, read-out: NCI-N87 IC50
Outline: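 NCI-N87 cells in RPMI-1640 with 10% FBS, plated and allowed 18 h attachment, then exposed in duplicate to 8 concentrations from 300 nM to 0.1 nM for 6 days at 37 °C, 5% CO2. Viability read by CellTiter-Glo luminescence; IC50 derived from the dose-response.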

BCRP = molecular target: T1, BCRP (Homo sapiens, UniProt Q9UNQ0); assay: in vitro; details: for Papp A→B at 2 h: Caco-2, Papp (A-B) (10^−6, cm/s); for Papp B→A at 2 h: Caco-2, Papp (B-A) (10^−6, cm/s)
T1 sequence (Q9UNQ0 1-655): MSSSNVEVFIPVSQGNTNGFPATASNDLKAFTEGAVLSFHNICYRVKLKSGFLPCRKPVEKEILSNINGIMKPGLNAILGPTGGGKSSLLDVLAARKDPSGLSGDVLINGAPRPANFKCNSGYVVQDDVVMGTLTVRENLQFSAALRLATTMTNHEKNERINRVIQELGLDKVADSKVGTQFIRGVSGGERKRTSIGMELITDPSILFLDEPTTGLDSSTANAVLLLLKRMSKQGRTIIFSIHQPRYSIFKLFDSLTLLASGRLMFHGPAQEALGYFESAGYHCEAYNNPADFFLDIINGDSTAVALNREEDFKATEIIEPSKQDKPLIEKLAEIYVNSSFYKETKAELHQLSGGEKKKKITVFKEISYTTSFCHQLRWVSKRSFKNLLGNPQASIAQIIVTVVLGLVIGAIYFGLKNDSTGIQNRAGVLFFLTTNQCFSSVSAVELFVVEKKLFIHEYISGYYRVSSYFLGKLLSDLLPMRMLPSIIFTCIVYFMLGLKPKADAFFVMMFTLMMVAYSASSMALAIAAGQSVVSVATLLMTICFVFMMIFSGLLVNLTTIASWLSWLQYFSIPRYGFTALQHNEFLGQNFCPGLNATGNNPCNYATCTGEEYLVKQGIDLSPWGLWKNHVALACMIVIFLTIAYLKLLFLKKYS
Protocol: To investigate whether the compounds of the present invention is a substrate for efflux transporters P-gp and BCRP in a Caco-2 cell model, thereby providing preclinical basis for analyzing the drug-drug interaction in pharmacokinetics.
• 1) Cell culture medium was added to each well of the Transwell. The HTS Transwell plate was incubated under conditions of 37° C. and 5% CO2 for 1 h prior to cell inoculation. • 2) Caco-2 cells were diluted with culture medium and the cell suspension was dispensed into filter wells of the 96-well HTS Transwell plate. […] The cell culture medium was changed periodically. • 3) Monolayer cell resistance was measured using the Millicell Epithelial Volt-Ohm detection system. The resistance of each well was recorded. After all wells were measured, the Transwell plate was put back into the incubator. TEER of each well was calculated according to the formula. The TEER value of each well should be greater than 230 ohm·cm^2. […] Preparation for Transporter Test • 1) The Caco-2 plate was taken out from the incubator. The monolayer cells were washed with pre-heated HBSS twice. The plate was then incubated at 37° C. for 30 min. • 2) Stock solutions of the compounds were prepared in DMSO and diluted with HBSS to obtain working solutions. Digoxin was used as a reference substrate for P-gp and rosuvastatin was used as a reference substrate for BCRP. Propranolol was used as a high permeability marker. • 3) The working solution (without inhibitor) was added to the Transwell insert (apical compartment) to determine the rate of drug transport in the apical to basolateral direction. The transfer buffer was added to the wells in the receiver plate (basolateral compartment). The working solution (without inhibitor) was added to the receiver plate wells (basolateral compartment) to determine the rate of drug transport in the basolateral to apical direction. The Transwell insert (apical compartment) was filled with the transport buffer. PSC833 was added to the apical and basolateral compartments to determine the rate of drug transport in the presence of P-gp inhibitors. • 4) The sample was transferred from the working solution to the quenching solution, and a sample with a time of 0 was prepared. The Transwell plate was incubated under conditions of 37° C. and 5% CO2 for 2 h. • 5) At the end of the transport cycle, the samples were transferred from the apical and basolateral wells into a new 96-well plate. Cold acetonitrile or methanol containing the appropriate internal standard (IS) was added to each well of the plate. The plate was vortexed for 10 min. The samples were centrifuged. The supernatant of an aliquot was mixed with an appropriate amount of ultrapure water (depending on the LC-MS/MS signal response and peak shape) prior to the LC-MS/MS analysis. • 6) The stock solution of lucifer yellow in DMSO was prepared and diluted with HBSS to determine the amount of lucifer yellow leakage after a 2-hour transport period. The lucifer yellow solution was added to the apical compartment. HBSS was added to the basolateral compartment. The plate was incubated at 37° C. for 30 min, and a certain amount of the solution was directly taken from the apical and basolateral wells and transferred to a new 96-well plate. The lucifer yellow fluorescence was measured in a fluorescence plate reader with 485 nm excitation and 530 nm emission (to monitor monolayer integrity).
Data were calculated using Microsoft Excel. The percentage of the compound remaining at each time point was estimated by determining the peak area ratio from the extracted ion chromatogram.
For drug transport analysis in the Caco-2 cell model, the apparent permeability coefficient (Papp) can be calculated according to the following formula, in cm/s:
[formula] • wherein the concentration C is in nM, the volume V is in μL, the time T is in s, and the area S is in cm^2.
The recovery rate is calculated according to the following formula:

[1] = Table 2 (untitled), Test Example 2.2
[2] = Homo sapiens, NCI-N87, 144 h, Table 1, Test Example 2.1
[3] = Homo sapiens, NCI-N87, 144 h, Table 2 (untitled), Test Example 2.2
[4] = Homo sapiens, JIMT-1, 144 h, Table 1, Test Example 2.1
[5] = Homo sapiens, JIMT-1, 144 h, Table 2 (untitled), Test Example 2.2

Row | Structure (SMILES) | IC50 (JIMT-1 cells; Table 1, Test Example 2.1) | IC50 (JIMT-1 cells; [1]) | IC50 (NCI-N87 cells; [2]) | IC50 (NCI-N87 cells; [3]) | IC50 (NCI-N87 cells; Table 1, Test Example 2.1) | IC50 (NCI-N87 cells; [1]) | IC50 (JIMT-1 cells; [4]) | IC50 (JIMT-1 cells; [5]) | Papp A→B at 2 h (BCRP) | Papp B→A at 2 h (BCRP) | IC50 (JIMT-1 cells; Homo sapiens, JIMT-1, 144 h, Table 3, Test Example 2.3) | IC50 (NCI-N87 cells; Homo sapiens, NCI-N87, 144 h, Table 3, Test Example 2.3) | IC50 (NCI-N87 cells; Homo sapiens, NCI-N87, 144 h, Table 4, Test Example 2.4)
1 | CC[C@@]1(O)C(=O)OCc2c1cc1n(c2=O)Cc2c-1nc1cc(F)c(C)c3c1c2[C@@H](NC(=O)C1CCC(O)CC1)CC3 (single isomer, unassigned) [P-II-1] | 8.47 nM | 8.5 nM | 18.5 nM | 18.5 nM | – | – | – | – | – | – | – | – | –
2 | CC[C@@]1(O)C(=O)OCc2c1cc1n(c2=O)Cc2c-1nc1cc(F)c(C)c3c1c2[C@@H](NC(=O)C1CCC(O)CC1)CC3 (single isomer, unassigned) [P-II-2] | 17 nM | 17.2 nM | – | – | 22.1 nM | 22.1 nM | – | – | – | – | – | – | –
3 | CC[C@@]1(O)C(=O)OCc2c1cc1n(c2=O)Cc2c-1nc1cc(F)c(C)c3c1c2[C@@H](NC(=O)[C@H]1C[C@@H](O)C1)CC3 [P-II-3, (1s,3R)-N-((1S,9S)-9-ethyl-5-fluoro-9-hydroxy-4-methyl-10,13-dioxo-2,3,9,10,13,15-hexahydro-1H,12H-benzo[de]pyrano[3′,4′:6,7]indolizino[1,2-b]quinolin-1-yl)-3-hydroxycyclobutane-1-carboxamide] | – | – | 9.56 nM | 9.56 nM | – | – | 5 nM | 5 nM | 0.17 ×10⁻⁶ cm/s | 4.83 ×10⁻⁶ cm/s | – | – | –
4 | CC[C@@]1(O)C(=O)OCc2c1cc1n(c2=O)Cc2c-1nc1cc(F)c(C)c3c1c2[C@@H](NC(=O)[C@H]1C[C@H](O)C1)CC3 [P-II-4, (1r,3S)-N-((1S,9S)-9-ethyl-5-fluoro-9-hydroxy-4-methyl-10,13-dioxo-2,3,9,10,13,15-hexahydro-1H,12H-benzo[de]pyrano[3′,4′:6,7]indolizino[1,2-b]quinolin-1-yl)-3-hydroxycyclobutane-1-carboxamide] | – | – | 8.03 nM | 8.03 nM | – | – | 6.64 nM | 6.6 nM | 0.05 ×10⁻⁶ cm/s | 1.72 ×10⁻⁶ cm/s | – | – | –
5 | CC[C@@]1(O)C(=O)OCc2c1cc1n(c2=O)Cc2c-1nc1cc(F)c(C)c3c1c2[C@@H](NC(=O)C[C@@H](C)O)CC3 [P-III-20, (R)—N-((1S,9S)-9-ethyl-5-fluoro-9-hydroxy-4-methyl-10,13-dioxo-2,3,9,10,13,15-hexahydro-1H,12H-benzo[de]pyrano[3′,4′: 6,7]indolizino[1,2-b]quinolin-1-yl)-3-hydroxybutanamide] | – | – | 5.89 nM | – | – | – | 4.35 nM | – | – | – | 4.35 nM | 5.89 nM | 5.9 nM
